Like-named read-outs stand apart in the source and are kept apart here.
What was measured:
BET active surface area = format: physicochemical
Excerpt: BET theory explains the physical adsorption of gas molecules onto a solid surface. The theory serves as the basis for the measurement of the specific surface area of a material. This theory allows the calculation of surface areas of materials in a very accurate manner and is thus capable of distinguishing differences between separate preparations of what would otherwise appear to be the same material. For example, activated carbon is a form of carbon that has been processed to make it extremely porous and thus to have a very large surface area. Activated carbon has been experimentally determined, using calculations derived from BET theory, to have a surface area of around 3000 m^2 g^−1.

[1] = system: patients with end-stage renal disease (ESRD) on dialysis; test: Three-period trial of ferric citrate as phosphate binder: 52-week randomized, open-label, active control Safety Assessment Period; format: in vivo, human
Description: This trial was a three-period, multicenter, safety and efficacy clinical trial.
Patients were followed on their randomized assignment for safety assessments over 52 weeks.
Calcium acetate 667 mg capsules and sevelamer carbonate 800 mg tablets were used and were supplied by Keryx Biopharmaceuticals, Inc. (Keryx) for the duration of the trial.
Serum phosphorus and calcium were checked at Visit 5 (Week 1), and every two weeks during the first 12 weeks after Visit 4 (Randomization Visit), and monthly for the rest of the Safety Assessment Period. During the Efficacy Assessment Period, serum phosphorus and calcium were drawn weekly. These values guided study drug administration. While on study drug, the use of other phosphate binders was not permitted. […] The titration of calcium acetate and sevelamer carbonate throughout the 52-week Safety Assessment Period were according to the current package inserts for these agents and/or at the discretion of the site PI.
Patients took study drug orally with or within one hour of meals or snacks. […] The PI or designee at each site dispensed the study drug to the patient and instructed the patient on how to administer it. It was recognized that some patients required a different distribution in pills in a given day due to snacks or missed meals.
Serum phosphorus and calcium were performed at Screening (Visit 0); weekly during the Washout Period after Visit 1 (Week −2); at Visit 4 (Randomization Visit); at Visits 5 (Week 1), 6 (Week 2), 7 (Week 4), 8 (Week 6), 9 (Week 8), 10 (Week 10), 11 (Week 12), 12 (Week 16), 13 (Week 20), 14 (Week 24), 15 (Week 28), 16 (Week 32), 17 (Week 36), 18 (Week 40), 19 (Week 44), 20 (Week 48), and 21 (Week 52) of the 52-week Safety Assessment Period; and at Visits 22 (Week 53), 23 (Week 54), 24 (Week 55) and 25 (Week 56) of the Efficacy Assessment Period. […]
The efficacy analyses were based on Full Analysis (FA) population that consisted of all patients who took at least one dose of study medication and provided baseline and at least one post-baseline efficacy assessment. The safety analyses were based on safety population that was consistent of all patients who took at least one dose of study medication.
There were two unique and distinct baseline assessments. The baseline for the Safety Assessment Period was the Randomization Visit (Visit 4) and was defined as “Week-0-baseline.” The baseline for the Efficacy Assessment Period was the last visit of the Safety Assessment Period (Visit 21. Week 52) and was defined as “study-baseline.”

[2] = Week 12, ANCOVA, Day-0 baseline covariate

For ferric citrate [Batch No. 35102], which “BET Active Surface Area” value (BET active surface area) is on record?
The value was 30.6 m^2/g.

With ferric citrate [Batch No. 35103] as the substance, how does the “BET Active Surface Area” value (BET active surface area) read?
The value was 29.1 m^2/g.

With ferric citrate [Batch No. 35105] as the substance, how does the “BET Active Surface Area” value (BET active surface area) read?
The value was 31.5 m^2/g.

With ferric citrate [Batch No. 35106] as the substance, how does the “BET Active Surface Area” value (BET active surface area) read?
The value was 28.5 m^2/g.

For ferric citrate [RFS-12-1], which “BET Active Surface Area” value (BET active surface area) is on record?
The value was 0.61 m^2/g.

What about the “BET Active Surface Area” value (BET active surface area; Table 1, unit not given) of the same substance?
The value was 0.61.

Which “BET Active Surface Area” value (BET active surface area; Table 1, unit not given) does the source give for ferric citrate [STM-134-1] here?
The value was 16.17.

Which “BET Active Surface Area” value (BET active surface area; Table 1, unit not given) does the source give for ferric citrate [STM-182-1] here?
Its value is 19.85.

For sevelamer carbonate, which “Calcium, Mean (SD)” value ([1]; Baseline) is on record?
The value was 9.056 (0.7291) MG/DL.

What about the “Calcium, Median” value ([1]; Baseline) of the same substance?
Its value is 9.150 mg/dL.

What about the “Product Of Calcium And Phosphorus, Mean (SD)” value ([1]; Baseline) of the same substance?
Its value is 68.0872 (16.29).

What about the “Product Of Calcium And Phosphorus, Median” value ([1]; Baseline) of the same substance?
The value was 66.2700.

What about the “Phosphorus, Mean (SD)” value ([1]; Baseline (Table 12)) of the same substance?
Its value is 7.51 (1.633) MG/DL.

What about the “Phosphorus, Median” value ([1]; Baseline (Table 12)) of the same substance?
Its value is 7.40 mg/dL.

What about the “Calcium, Change from Baseline, Mean (SD)” value ([1]; Week 12) of the same substance?
The value was 0.175 (0.7509) MG/DL.

And the “Calcium, Change from Baseline, Median” value ([1]; Week 12)?
Its value is 0.100 mg/dL.

What about the “Calcium, Mean (SD)” value ([1]; Week 12) of the same substance?
Its value is 9.231 (0.7210) MG/DL.

And the “Calcium, Median” value ([1]; Week 12)?
The value was 9.400 mg/dL.

And the “Product Of Calcium And Phosphorus, Change from Baseline, Mean (SD)” value ([1]; Week 12)?
The value was −20.0621 (19.17).

What about the “Product Of Calcium And Phosphorus, Change from Baseline, Median” value ([1]; Week 12) of the same substance?
The value was −19.8500.

What about the “Product Of Calcium And Phosphorus, Mean (SD)” value ([1]; Week 12) of the same substance?
Its value is 48.0251 (14.37).

What about the “Product Of Calcium And Phosphorus, Median” value ([1]; Week 12) of the same substance?
The value was 46.2800.

And the “Phosphorus, Change from Baseline, Mean (SD)” value ([1]; Week 12 (Table 12))?
Its value is −2.28 (2.169) MG/DL.

What about the “Phosphorus, Change from Baseline, Median” value ([1]; Week 12 (Table 12)) of the same substance?
Its value is -2.45 mg/dL.

What about the “Phosphorus, Mean (SD)” value ([1]; Week 12 (Table 12)) of the same substance?
The value was 5.23 (1.713) MG/DL.

What about the “Phosphorus, Median” value ([1]; Week 12 (Table 12)) of the same substance?
The value was 5.00 mg/dL.

What about the “Calcium, LS Mean (SE)” value [1, 2] of the same substance?
Its value is 9.15 (0.08) MG/DL.

And the “Product Of Calcium And Phosphorus, LS Mean (SE)” value [1, 2]?
The value was 47.52 (1.50).

And the “Phosphorus, LS Mean (SE)” value ([1]; Week 12, ANCOVA, Day-0 baseline covariate (Table 12))?
The value was 5.22 (0.17) MG/DL.

Reference: patent publication US20150079168A1 (Keryx Biopharmaceuticals, Inc., priority 2012, published 2015)
